Patent publication US20050209147A1, “Peptide inhibitors of RhoA signaling” (The Board of Trustees of the Leland Stanford Junior …, priority 2004, published 2005)

Legend:
[1] = target: T1, RhoA binding to Citron-RBD (Homo sapiens, UniProt O14578); experiment: Affinity-precipitation (pull-down) of GTP-Val14-RhoA with Citron GST-RBD; details: 20 μg of domain, anti-RhoA immunoblot
T1 sequence (O14578 1091-1302 limits assumed): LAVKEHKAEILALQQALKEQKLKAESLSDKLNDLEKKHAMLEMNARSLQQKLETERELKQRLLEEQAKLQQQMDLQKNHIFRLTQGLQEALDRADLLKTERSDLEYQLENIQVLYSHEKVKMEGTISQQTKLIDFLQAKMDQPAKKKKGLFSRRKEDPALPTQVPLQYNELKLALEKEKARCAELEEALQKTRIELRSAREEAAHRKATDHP
Procedure: (§1) Specificity of RhoA fusion domains and measurement of RhoA activation. The specificity of P1-RhoA fusion domains was evaluated by affinity-precipitation assay using the rho-binding domain (RBD) from Citron, Rhotekin and ROCK. Recombinant Val14-RhoA was loaded with 1 mM GTP at 37° C. for 90 min. 10 μg of Citron, Rhotekin or ROCK GST-RBD conjugated with glutathione beads were mixed with 5 μg of GTP-Val14-RhoA in […] of 50 mM Tris-HCl (pH 7.4), 5 mM MgCl2, 0.5 mM GTP, 2 mg/ml BSA (binding buffer). Binding was for 60 min. at 15° C. The beads were washed twice with binding buffer and subjected to SDS-polyacrylamide gel electrophoresis on a 12% gel. RhoA background binding to glutathione beads was negligible. In case of experiments in presence of P1-RhoA fusion domains, the domains were previously dissolved in binding buffer at 1 mg/ml.

[2] = tested on: CCL21-induced LFA-1-dependent lymphocyte adhesion to ICAM-1; experiment: In vitro rapid adhesion assay on ICAM-1; assay type: cell-based, mouse; details: 1 μM CCL21; for rapid adhesion induced by CCL21 on high density of ICAM-1: high density of ICAM-1 (˜5000 sites/μm^2); for rapid adhesion induced by CCL21 on low density of ICAM-1: low density of ICAM-1 (−500 sites/μm^2)
Procedure: In vitro rapid adhesion assay on ICAM-1. ICAM-1 was purified from mouse spleens and adhesion assays were performed as previously reported. Briefly, primary naïve lymphocytes (about 70% T-, 30% B-cells) were isolated from peripheral and mesenteric lymph nodes and Peyer's patches from young BALB/c mice (Harlan, Italy). Adhesion assays were performed on eighteen well glass slides coated overnight at 4° C. with purified mouse ICAM-1; site density per square micrometer of immobilized ICAM-1 was calculated as reported.

LFA-1 lateral mobility = experiment: LFA-1 distribution on plasma membrane (confocal microscopy); assay type: cell-based, mouse; details: 1 μM CCL21 2 min
Procedure: Evaluation of LFA-1 distribution on plasma membrane. Analysis and quantification of chemokine-induced LFA-1 surface distribution was determined by confocal microscopy, following the same procedure previously described. Briefly, lymphocytes were stimulated in suspension under stirring and then immediately fixed in 1% ice-cold paraformaldehyde in PBS, pH 7.4, for 10 min. Cell were washed and incubated with 10 μg/ml of TIB213 rat anti-mouse LFA-1 (ATCC) for 30 min on ice, washed 3 times and then incubated 30 min with Texas Red-conjugated goat anti-rat secondary antibody. The washed cells adhered for 30 min at 4° C. on 0.1% poly-L-lysine coated round 13 mm glass coverslips and were analyzed with a Carl Zeiss LSM 510 confocal imaging system, with a 63×C-Apochromat objective (NA 1.2). Definition and quantitative analysis of “disperse” and “clustered” morphologies of LFA-1 distribution was as previously described.

[3] = tested on: ζ PKC translocation to the plasma membrane; experiment: ζ PKC intracellular distribution (sucrose gradient, immunoblot); assay type: cell-based; details: CCL21 30 seconds; for ζ PKC translocation to the plasma membrane induced by CCL21: lymphocytes, 30 min pretreatment
Procedure: ζ PKC intracellular distribution. The assay was performed as previously described. Briefly, lymphocytes were stimulated under stirring with agonists at 37° C. Stimulation was stopped by diluting the cells in a 10 times larger volume of ice-cold PBS. Cells, resuspended in 1 ml of ice-cold PBS containing 8% sucrose, containing the Complete™ protease inhibitor cocktail from Roche, were sonicated and the homogenates were centrifuged at 800×g/10 min to remove nuclei and unbroken cells. The postnuclear supernatant was loaded on discontinuous sucrose gradient (50% sucrose, 30% sucrose) and centrifuged for 120 min. at 100,000×g. The light membrane fraction (plasma membrane) was collected in the 30% layer. Following SDS-PAGE on 10% acrylamide, proteins were electroblotted on nitrocellulose filters, probed with rabbit polyclonal antibodies anti ζ PKC (Santa Cruz Biotechnology), followed by goat polyclonal anti-rabbit HRP conjugated (Sigma) and developed using ECL (Amersham).

[4] = tested on: lymphocyte rolling and arrest on PP-HEV; experiment: Intravital video microscopy of lymphocyte-high endothelial venule interaction in Peyer's patches; assay type: in vivo, mouse
Procedure: Intravital video microscopy analysis of lymphocyte-high endothelial venule interaction in Peyer's patches. Lymphocytes (5×10^6/ml in DMEM without sodium bicarbonate supplemented with 20 mM Hepes, 5% FCS, pH7.1) were labeled with either CMFDA or CMTMR for 30 min at 37° C. 30×10^6 labeled cells were injected iv. In situ videomicroscopic analyses were carried out in high endothelial venules (HEV) in the secondary lymphoid organ Peyer's patch (PP) as previously described. Cell behavior was analyzed over a period of 20-30 min starting at 2 minutes after iv injection. Interactions of ≧1 s were considered significant and were scored. Cells were considered to be interacting whether they rolled, arrested or both. Lymphocytes that remained firmly adherent on venular wall for ≧10 s were considered arrested.

[5] = tested on: autoreactive, encephalitogenic T lymphocytes in inflamed brain microvessels; experiment: Intravital microscopy of Ag-stimulated lymphocyte recruitment in inflamed brain microvessels; assay type: in vivo; details: mouse model simulating human Multiple Sclerosis
Procedure: The RhoA derived peptides described in Example 1 were tested for their ability to inhibit Ag-stimulated lymphocyte (autoreactive, encephalitogenic T lymphocytes) recruitment in inflamed brain by looking in vivo cell behavior with intravital microscopy, as described in Example 1. This in vivo model simulates, in mouse, human Multiple Sclerosis.

[6] = tested on: Swiss 3T3 mouse fibroblasts; experiment: LPA-induced actin stress fibers and membrane ruffling in fibroblasts; assay type: cell-based; details: 4 hours at 37° C. with peptide, then 10 min 25 ng/ml LPA
Procedure: Evaluation of actin stress fibers content. Swiss 3T3 mouse fibroblasts were maintained in DMEM containing 10% FCS for 6 days and then starved for 12 hours. Actin stress fibers content was evaluated in permeabilized cells with TRITC-labeled phalloidin. Analysis was performed by using a Zeiss LSM confocal microscope.

[7] = tested on: LFA-1 high affinity state; experiment: Measurement of LFA-1 high affinity state (soluble 125I-ICAM-1 binding); assay type: cell-based, mouse; details: 1 μM CCL21 2 min
Procedure: Measurement of LFA-1 high affinity state. Induction of LFA-1 high affinity state by CCL21 was evaluated by measuring binding of soluble ^125I-ICAM-1. Briefly, ICAM-1 was iodinated with ^125NaI by the Chizzonite method. The binding assay was performed at 37° C. in a 500 μl Eppendorf tube. 40 μl of lymphocyte suspension (5×10^7/ml in PBS containing 1 mg/ml BSA, 2 mM MgCl2, 1 mM CaCl2, 1 mM D-glucose, pH 7.2) were directly layered on […] oil cushion of 2/1 dibutyl/dioctyl phthalates. Lymphocytes were stimulated with 10 μl of PBS containing chemokine (6 μM) and ^125I-ICAM-1 (5×10^5 CPM corresponding approximately to 2 μg of ^125I-ICAM-1). The binding reaction was stopped by rapid centrifugation in microfuge. Radioactivity bound to lymphocytes was counted with a gamma counter.

[8] = target: T2, RhoA binding to Rhotekin-RBD (Homo sapiens, UniProt Q9BST9); experiment: Affinity-precipitation (pull-down) of GTP-Val14-RhoA with Rhotekin GST-RBD; details: 20 μg of domain, anti-RhoA immunoblot
T2 sequence (Q9BST9 17-98 limits assumed): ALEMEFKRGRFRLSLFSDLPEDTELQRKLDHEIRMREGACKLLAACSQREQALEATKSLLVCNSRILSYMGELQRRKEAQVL
Procedure: as §1

ζ PKC = experiment: Measurement of ζ PKC kinase activity; assay type: cell-based; details: 150 nM Wortmannin or 30 μM LY294002, 30 min, lymphocytes
Procedure: Measurement of ζ PKC kinase activity. The assay was performed as previously described. Briefly, lymphocytes were stimulated under stirring with agonists at 37° C. Stimulation was stopped with lysis buffer containing 50 mM Tris-HCl, pH 7.5, 1% Triton X-100, 0.01% SDS, 150 mM NaCl, 50 mM NaF, 10 mM sodium pyrophosphate, 1 μM phenylarsine oxide, containing the Complete™ protease inhibitor cocktail from Roche. After 30 min. on ice, lysates were centrifuged at 16,000 g for 1 min. to remove cell debris. Rabbit polyclonal anti ζ PKC (1 μg) or control rabbit serum was added to equal amount of cell lysates, followed by immunoprecipitation with trisacryl protein A. Equal amounts of ζ PKC were immunoprecipitated as confirmed by Western blot analysis. After four washing, immunoprecipitates were subjected to the kinase reaction for 30 min. at 30° C. in 50 μl of kinase buffer containing 0.5 mM EGTA, 10 mM MgC2, 20 mM HEPES, pH 7.4, 50 μM ATP, 5 μCi [γ-^32P]ATP and 2 μg myelin basic protein (MBP) as a substrate. The reaction was stopped by addition of 5% TCA and the reaction mixture was filtered through phosphocellulose paper. After four rinses with 1% phosphoric acid radioactivity on the filter was determined at a scintillation counter.

[9] = pretreated lymphocytes injected iv

Compound | rapid adhesion induced by CCL21 on high density of ICAM-1 [2] | rapid adhesion induced by CCL21 on low density of ICAM-1 [2] | LFA-1 rapid lateral mobility (generation of LFA-1 clusters) induced by CCL21 (LFA-1 lateral mobility) | ζ PKC translocation to the plasma membrane induced by CCL21 [3] | LFA-1 high affinity state triggering by CCL21 [7] | rolling and arrest of circulating lymphocytes on PP-HEV [4, 9] | prevention of the increase of ζ PKC kinase activity induced by CCL21 (ζ PKC) | further results
P1-RhoA 23-40: Penetratin-1 fused through a glycine to human RhoA aa 23-40 (IVFSKDQFPEVYVPTVFE, Domain I); aa 34 | blocked adhesion triggering in a dose-dependent manner | prevented in a dose-dependent manner | prevented | blocked |  |  |  | binding of RhoA to Citron [1]: blocked; blockade of ζ PKC translocation to the plasma membrane, densitometric analysis ([3]; 100 μM): about 82%; percentage of cells displaying only rolling on PP-HEV ([4]; 50 μM pretreatment): increased; inhibition of stable arrest of lymphocytes on PP-HEV ([4]; 50 μM pretreatment, P<0.01): about 75%; lymphocyte tethering and interaction with vessels ([4]; pretreated lymphocytes injected iv, 50 μM): did not influence; recruitment/arrest of Ag-stimulated lymphocytes in inflamed brain microvessels [5]: blocks recruitment
P1: Plasma membrane translocating sequence from third helix of Antennapedia homeodomain, RQIKIWFQNRRMKWKK; control peptide [reference compound] | ineffective | unable to block | did not prevent | did not prevent | did not prevent | did not affect |  | accumulation of actin stress fibers upon LPA triggering [6]: completely ineffective
P1-RhoA 75-92: Penetratin-1 fused through a glycine to human RhoA aa 75-92 (PDTDVILMCFSIDSPDSL, Domain II); aa 34 | ineffective | unable to block | did not prevent | did not prevent |  | did not affect |  | binding of RhoA to Rhotekin [8]: blocked
COC[C@H]1OC(=O)c2coc3c2[C@@]1(C)C1=C(C3=O)[C@@H]2CCC(=O)[C@@]2(C)C[C@H]1OC(C)=O [Wortmannin] |  |  |  |  |  |  | about 51% | 
C[C@@H](N)[C@H]1CC[C@H](C(=O)Nc2ccncc2)CC1 [Y27632, reference compound] | did not inhibit | did not inhibit | neither LFA-1 affinity triggering (FIG. 2H) nor induction of lateral mobility were blocked |  | neither LFA-1 affinity triggering (FIG. 2H) nor induction of lateral mobility were blocked | rolled and adhered normally |  | 
O=c1cc(N2CCOCC2)oc2c(-c3ccccc3)cccc12 [LY294002] |  |  |  |  |  |  | ~62% | 
